Test results: US20210346419A1, “COMPOSITIONS AND METHODS FOR DIAGNOSIS AND TREATMENT OF CONDITIONS RELATED TO THE QUALITY OF AGING AND LONGEVITY” (EPITRACKER, INC., priority 2019, published 2021)

Columns and labels:
4H human cell system = assay: BioMAP Diversity PLUS primary human cell phenotypic profiling, 4H system; type: cell-based; details: 6.7 and/or 20 μM, 24 to 72 hours
Text: (§1) It was hypothesized that, given the compounds' associations with lower risks of comorbidities of aging in long-lived dolphins, the compounds of the embodiments would have relevant activities in human cell systems mimicking conditions related to the quality of aging and longevity. To test this hypothesis, 12 primary human cell systems from the BioMAP Diversity PLUS® panel (Eurofins/DiscoverX, Fremont, Calif.) mimicking inflammation and fibrosis relevant to chronic inflammation, liver disease, respiratory disease, skin disease, wound healing, scarring, allergies, asthma, autoimmune disease, cancer, and cardiovascular disease, were exposed to pure, synthetic forms of the selected compounds at one or two concentrations (6.7 and/or 20 μM). Quantitative measurements of 148 biomarker activities across this broad panel, along with comparative analysis of biological activities from known bioactive agents, were used to predict and compare the efficacy and function of the targeted compounds across these systems compared to non-treated control systems. Activated BioMAP systems were incubated with the targeted compounds for 24 to 72 hours. Biomarker activities were considered significant when biomarker values were outside of the 95th percentile significance envelope and had at least one concentration with an effect size >20% (log 10 ratio) >0.1. FIG. 2 describes the different cell systems.
(§2) The summary is of relevant diseases and tissues treated with selected compounds at 6.7 to 20 μM, based on primary human cell phenotypic profiling.

BT human cell system = assay: BioMAP Diversity PLUS primary human cell phenotypic profiling, BT system; type: cell-based; details: 6.7 and/or 20 μM, 24 to 72 hours
Text: as §1, §2

BE3C human cell system = assay: BioMAP Diversity PLUS primary human cell phenotypic profiling, BE3C system; type: cell-based; details: 6.7 and/or 20 μM, 24 to 72 hours
Text: as §1, §2

/Mphg human cell system = assay: BioMAP Diversity PLUS primary human cell phenotypic profiling, /Mphg system; type: cell-based; details: 6.7 and/or 20 μM, 24 to 72 hours
Text: as §1, §2

LPS human cell system = assay: BioMAP Diversity PLUS primary human cell phenotypic profiling, LPS system; type: cell-based; details: 6.7 and/or 20 μM, 24 to 72 hours
Text: as §1, §2

CASM3C human cell system = assay: BioMAP Diversity PLUS primary human cell phenotypic profiling, CASM3C system; type: cell-based; details: coronary artery smooth muscle cell proliferation, 6.7 and/or 20 μM, 24 to 72 hours
Text: as §1, with “cell systems. […]” for “cell systems.”

[1] = room temperature; cited from earlier work
3C human cell system = assay: BioMAP Diversity PLUS primary human cell phenotypic profiling, 3C system; type: cell-based; details: 6.7 and/or 20 μM, 24 to 72 hours
Text: as §1, with “cell systems. […]” for “cell systems.”

KF3CT human cell system = assay: BioMAP Diversity PLUS primary human cell phenotypic profiling, KF3CT system; type: cell-based; details: 6.7 and/or 20 μM, 24 to 72 hours
Text: as §1, §2

BF4T human cell system = assay: BioMAP Diversity PLUS primary human cell phenotypic profiling, BF4T system; type: cell-based; details: 6.7 and/or 20 μM, 24 to 72 hours
Text: as §1, with “cell systems. […]” for “cell systems.”

SAg human cell system = assay: BioMAP Diversity PLUS primary human cell phenotypic profiling, SAg system; type: cell-based; details: 6.7 and/or 20 μM, 24 to 72 hours; for Proliferation, Log10 ratio of treated vs. non-treated systems: T cell proliferation
Text: as §1, §2

MyoF human cell system = assay: BioMAP Diversity PLUS primary human cell phenotypic profiling, MyoF system; type: cell-based; details: 6.7 and/or 20 μM, 24 to 72 hours
Text: as §1, §2

[2] = test system: HDF3CGF human cell system; assay: BioMAP Diversity PLUS primary human cell phenotypic profiling, HDF3CGF system; type: cell-based; details: 6.7 and/or 20 μM, 24 to 72 hours
Text: as §1, §2

Compound: CC(=O)N[C@H](C(=O)O)[C@@H](C)O [N-acetylthreonine]
- VEGFR2, Log10 ratio of treated vs. non-treated systems (4H human cell system): −0.16
- sIgG, Log10 ratio of treated vs. non-treated systems (BT human cell system): −0.41

Compound: C[C@H](CCC(=O)O)[C@H]1CC[C@H]2[C@@H]3[C@H](O)C[C@@H]4C[C@H](O)CC[C@]4(C)[C@H]3C[C@H](O)[C@]12C [cholate]
- MMP-1, Log10 ratio of treated vs. non-treated systems (BE3C human cell system): −0.10

Compound: O=C(O)CNC(=O)c1ccccc1 [hippurate]
- CXCL8, Log10 ratio of treated vs. non-treated systems (/Mphg human cell system): −0.12
- CD40, Log10 ratio of treated vs. non-treated systems (LPS human cell system): −0.11
- Proliferation, Log10 ratio of treated vs. non-treated systems (CASM3C human cell system): −0.10
- P-selectin, Log10 ratio of treated vs. non-treated systems (4H human cell system): −0.10
- MMP-1, Log10 ratio of treated vs. non-treated systems (BE3C human cell system): −0.11

Compound: O=c1[nH]c(=O)c2ncn([C@@H]3O[C@H](CO)[C@@H](O)[C@H]3O)c2[nH]1 [xanthosine]
- CXCL8, Log10 ratio of treated vs. non-treated systems (/Mphg human cell system): −0.13
- CD40, Log10 ratio of treated vs. non-treated systems (LPS human cell system): −0.12
- Tissue factor, Log10 ratio of treated vs. non-treated systems (LPS human cell system): −0.13
- Physical state and stability [1]: solid that is stable at room temperature

Compound: COc1cc(C(O)C(=O)O)ccc1O (stereo not shown) [vanillylmandelate (VMA), vanillylmandelate]
- CXCL8, Log10 ratio of treated vs. non-treated systems (/Mphg human cell system): −0.18

Compound: N[C@@H](CCC(=O)N[C@@H](Cc1c[nH]cn1)C(=O)O)C(=O)O [gamma-glutamylhistidine]
- Tissue factor, Log10 ratio of treated vs. non-treated systems (3C human cell system): −0.12
- CXCL8, Log10 ratio of treated vs. non-treated systems (/Mphg human cell system): −0.15
- CD40, Log10 ratio of treated vs. non-treated systems (LPS human cell system): −0.11
- E-selectin, Log10 ratio of treated vs. non-treated systems (LPS human cell system): −0.11
- Proliferation, Log10 ratio of treated vs. non-treated systems (CASM3C human cell system): 0.11
- TNF-α (sTNF-α), Log10 ratio of treated vs. non-treated systems (BT human cell system): −0.18
- MMP-1, Log10 ratio of treated vs. non-treated systems (BE3C human cell system): −0.10

Compound: O[C@H]1[C@H](O)[C@@H](O)[C@H](O)[C@@H](O)[C@H]1O [myo-inositol]
- IL-1α, Log10 ratio of treated vs. non-treated systems (/Mphg human cell system): −0.10
- CXCL10, Log10 ratio of treated vs. non-treated systems (KF3CT human cell system): −0.26
- IL-1α, Log10 ratio of treated vs. non-treated systems (KF3CT human cell system): −0.11
- MMP-9, Log10 ratio of treated vs. non-treated systems (KF3CT human cell system): −0.18
- PAI-1, Log10 ratio of treated vs. non-treated systems (KF3CT human cell system): −0.27
- MCP-1, Log10 ratio of treated vs. non-treated systems (4H human cell system): −0.13
- Eotaxin-3, Log10 ratio of treated vs. non-treated systems (BF4T human cell system): −0.19
- MCP-1, Log10 ratio of treated vs. non-treated systems (BF4T human cell system): −0.21
- IL-17A (sIL-17A), Log10 ratio of treated vs. non-treated systems (BT human cell system): −0.12
- TNF-α (sTNF-α), Log10 ratio of treated vs. non-treated systems (BT human cell system): −0.21
- sIL-2, Log10 ratio of treated vs. non-treated systems (BT human cell system): −0.16
- sIL-17F, Log10 ratio of treated vs. non-treated systems (BT human cell system): −0.15
- sIgG, Log10 ratio of treated vs. non-treated systems (BT human cell system): −0.62
- Proliferation, Log10 ratio of treated vs. non-treated systems (SAg human cell system): −0.20
- CXCL8, Log10 ratio of treated vs. non-treated systems (BE3C human cell system): −0.26
- CXCL10, Log10 ratio of treated vs. non-treated systems (BE3C human cell system): −0.58
- CXCL11, Log10 ratio of treated vs. non-treated systems (BE3C human cell system): −0.28
- EGFR, Log10 ratio of treated vs. non-treated systems (BE3C human cell system): −0.11
- HLA-DR, Log10 ratio of treated vs. non-treated systems (BE3C human cell system): −0.10
- ICAM-1, Log10 ratio of treated vs. non-treated systems (BE3C human cell system): −0.11
- MMP-9, Log10 ratio of treated vs. non-treated systems (BE3C human cell system): −0.25
- PAI-1, Log10 ratio of treated vs. non-treated systems (BE3C human cell system): −0.18
- Collagen III, Log10 ratio of treated vs. non-treated systems (MyoF human cell system): −0.11
- Collagen IV, Log10 ratio of treated vs. non-treated systems (MyoF human cell system): 0.24
- VCAM-1, Log10 ratio of treated vs. non-treated systems (MyoF human cell system): −0.11

Compound: Nc1ncnc2c1ncn2[C@@H]1O[C@H](CSCC[C@H](N)C(=O)O)[C@@H](O)[C@H]1O [S-adenosylhomocysteine (SAH), S-adenosylhomocysteine]
- Proliferation, Log10 ratio of treated vs. non-treated systems (3C human cell system; endothelial cell proliferation): −0.27
- CXCL10, Log10 ratio of treated vs. non-treated systems [2]: −0.19
- CXCL11, Log10 ratio of treated vs. non-treated systems [2]: −0.25
- Collagen III, Log10 ratio of treated vs. non-treated systems [2]: −0.21
- M-CSF, Log10 ratio of treated vs. non-treated systems [2]: −0.19
- MCP-1, Log10 ratio of treated vs. non-treated systems [2]: −0.14
- PAI-1, Log10 ratio of treated vs. non-treated systems [2]: −0.23
- Proliferation, Log10 ratio of treated vs. non-treated systems [2]: −1.10
- TIMP-1, Log10 ratio of treated vs. non-treated systems [2]: −0.14
- VCAM-1 (VCAM1), Log10 ratio of treated vs. non-treated systems [2]: −0.17
- MMP-9, Log10 ratio of treated vs. non-treated systems (KF3CT human cell system): −0.10
- PAI-1, Log10 ratio of treated vs. non-treated systems (KF3CT human cell system): −0.28
- sIgG, Log10 ratio of treated vs. non-treated systems (BT human cell system): −0.29
- Proliferation, Log10 ratio of treated vs. non-treated systems (SAg human cell system): −0.21
- CXCL8, Log10 ratio of treated vs. non-treated systems (BE3C human cell system): −0.13
- CXCL11, Log10 ratio of treated vs. non-treated systems (BE3C human cell system): −0.13
- HLA-DR, Log10 ratio of treated vs. non-treated systems (BE3C human cell system): −0.13
- MMP-9, Log10 ratio of treated vs. non-treated systems (BE3C human cell system): −0.24
- Alpha-SM actin, Log10 ratio of treated vs. non-treated systems (MyoF human cell system): −0.18
- Collagen I, Log10 ratio of treated vs. non-treated systems (MyoF human cell system): −0.15
- Collagen III, Log10 ratio of treated vs. non-treated systems (MyoF human cell system): −0.27
- Collagen IV, Log10 ratio of treated vs. non-treated systems (MyoF human cell system): 0.31
- VCAM-1, Log10 ratio of treated vs. non-treated systems (MyoF human cell system): −0.12

Compound: C[C@H](CCC(=O)O)[C@H]1CC[C@H]2[C@@H]3[C@H](O)C[C@@H]4C[C@H](O)CC[C@]4(C)[C@H]3CC[C@]12C [chenodeoxycholate]
- CXCL8, Log10 ratio of treated vs. non-treated systems (SAg human cell system): −0.10

Compound: N=C(N)NCCCC(=O)O [4-guanidinobutanoate]
- CXCL10, Log10 ratio of treated vs. non-treated systems [2]: −0.11
- CXCL11, Log10 ratio of treated vs. non-treated systems [2]: −0.19
- Collagen III, Log10 ratio of treated vs. non-treated systems [2]: −0.23
- Proliferation, Log10 ratio of treated vs. non-treated systems [2]: −1.09
- TIMP-1, Log10 ratio of treated vs. non-treated systems [2]: −0.14
- VCAM-1 (VCAM1), Log10 ratio of treated vs. non-treated systems [2]: −0.19
- MCP-1, Log10 ratio of treated vs. non-treated systems (4H human cell system): −0.12
- IL-17A (sIL-17A), Log10 ratio of treated vs. non-treated systems (BT human cell system): −0.17
- TNF-α (sTNF-α), Log10 ratio of treated vs. non-treated systems (BT human cell system): −0.10
- sIgG, Log10 ratio of treated vs. non-treated systems (BT human cell system): −0.49
- CD38, Log10 ratio of treated vs. non-treated systems (SAg human cell system): −0.10
- Proliferation, Log10 ratio of treated vs. non-treated systems (SAg human cell system): −0.13
- Collagen IV, Log10 ratio of treated vs. non-treated systems (MyoF human cell system): 0.13
